We go through 2 molecules from patent EP0031883A1, “Antimicrobial agent containing hydroxy butylimidazole derivatives” (BAYER AG, priority 1979, dated 1981).

In this assay the test system is Candida. The experiment in a line: Antimicrobial in-vivo activity (oral) in mouse candidosis. Set-up: species or system Mäuse. The note with it: SPF-CF1 mice infected i.v. with 1 - 2 x 10^6 Candida cells; 50 - 100 mg/kg oral, one hour before and seven hours after infection; untreated controls about 5 % survival on day 5. As to the method:
Mäuze vom Typ SPF-CF1 wurden intravenös mit 1 - 2 x 10^6 logaritmisch wachsenden Candida-Zellen, die in physiologischer Kochsalzlösung suspendiert waren, infiziert. Eine Stunde vor und sieben Stunden nach der Infektion werden die Tiere mit jeweils 50 - 100 mg/kg Körpergewicht der Präparate oral behandelt.
Urbehandelte Tiere starben 3 bis 6 Tage post infektionen. Die Überlebensrate am 5. Tag post infektionen betrug bei unbehandelten Kontrolltieren etwa 5 %.

In the case of `Clc1ccc(COC(Cn2ccnc2)c2ccc(Cl)cc2Cl)c(Cl)c1` (stereo not drawn) [Miconazol®, 1-[2,4-Dichlor-β-(2,4-dichlorbenzyloxy)-phenethyl]-imidazolnatrium], the Wirkung entry is reported as “keine Wirkung”. On to `CC(C)(C)C(O)(Cn1ccnc1)c1ccc(-c2ccc(Cl)cc2)cc1` (centres unmarked) [Verbindung 2, 1-(4-p-Chlorbiphenylyl)-1-(tert.-butyl)-2-(imidazol-1-yl)-ethan-1-ol], for which the Wirkung result is “sehr gute Wirkung”.
